The assay has as its target T1, P2X7 receptor (Homo sapiens, UniProt Q99572).
T1 construct: stably expressing the full length P2X7 receptor; expressed in transfected cells
T1 sequence (Q99572 1-595): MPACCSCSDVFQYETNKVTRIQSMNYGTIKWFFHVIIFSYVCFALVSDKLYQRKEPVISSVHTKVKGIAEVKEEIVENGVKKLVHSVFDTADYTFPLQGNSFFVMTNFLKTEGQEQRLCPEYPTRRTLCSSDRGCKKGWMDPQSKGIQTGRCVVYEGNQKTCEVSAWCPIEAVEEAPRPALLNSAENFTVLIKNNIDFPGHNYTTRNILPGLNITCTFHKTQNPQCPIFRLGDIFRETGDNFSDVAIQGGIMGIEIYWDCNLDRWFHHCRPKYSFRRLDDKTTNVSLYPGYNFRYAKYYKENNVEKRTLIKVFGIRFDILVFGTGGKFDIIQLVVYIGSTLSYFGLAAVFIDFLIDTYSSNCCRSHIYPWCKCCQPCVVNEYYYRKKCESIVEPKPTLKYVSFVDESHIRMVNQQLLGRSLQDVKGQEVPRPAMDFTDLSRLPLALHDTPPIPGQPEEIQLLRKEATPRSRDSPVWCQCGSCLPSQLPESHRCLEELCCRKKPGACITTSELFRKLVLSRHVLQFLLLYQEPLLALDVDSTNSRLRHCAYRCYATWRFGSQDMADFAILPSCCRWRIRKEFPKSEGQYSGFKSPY
The assay can be described thus: Ca++ flux assay (FLIPR) in P2X7-HEK-293 cell line stably expressing the full length P2X7 receptor, Bz-ATP activation. Format: cell-based. Particulars: P2X7-HEK-293 cells; agonist Bz-ATP; fluorescence as total area over 90 seconds; read-out: P2X7 Ca Flux hu IC50. The procedure: The ability of Triazolopyrazinone Compounds to inhibit P2X7 function can be determined in Ca^++ flux assay using a P2X7-HEK-293 cell line stably expressing the full length P2X7 receptor. The assay protocol is as described in Cheewatrakoolpong et al., Biochem. Biophys. Res. Commun. 332:17-27 (2005) with minor modification, and is as summarized hereinafter. Briefly, cells were plated in poly-D-lysine-coated wells, and incubated at 37° C. for 24 hours. Cells were then incubated for 1 hour with a loading buffer which contains a dye sensitive to changes in Ca^++ concentration (lx Calcium Plus no wash dye from Molecular Devices, Sunnyvale, Calif.). The test compounds were added to the wells in the dye loading step. Plates containing the wells were transferred to a Fluorometric Imaging Plate Reader (Molecular Devices, Sunnyvale, Calif.). The cells were activated by the addition of the P2X7 receptor agonist 2′(3) —O-(4-benzoylbenzoyl)adenosine 5′-triphosphate (Bz-ATP from Sigma-Aldrich, St. Louis, Mo.), and the fluorescence was monitored for 90 seconds. The fluorescent signal was determined as the total area over the 90 second run time. Using this protocol, representative Triazolopyrazinone Compounds, compounds 1471 were tested. Tables 3 to 6 show the concentration at which 50% of the maximum response in the Ca^++ was inhibited (IC50) for each of the test compounds.
In general, IC50 refers to the concentration that gives 50% inhibition. As to `Cc1c(Cl)cccc1-n1ccn2c(SCc3ccccc3Cc3ccccc3)nnc2c1=O` [Compound 45, 3-(2-benzylbenzylthio)-7-(3-chloro-2-methylphenyl)-[1,2,4]triazolo[4,3-a]pyrazin-8(7H)-one], the IC50 was 176 nM.

In the case of `Cc1c(Cl)cccc1-n1ccn2c(SCc3cccc(-c4ccccc4)c3)nnc2c1=O` [Compound 46, 3-(biphenyl-3-ylmethylthio)-7-(3-chloro-2-methylphenyl)-[1,2,4]triazolo[4,3-a]pyrazin-8(7H)-one], the half-inhibitory concentration (IC50) came to 3500 nM. Take `Cc1ccccc1CSc1nnc2c(=O)n(-c3cccc(C(F)(F)F)c3Cl)ccn12` [Compound 47, 7-(2-chloro-3-(trifluorornethyl)phenyl)-3-(2-methylbenzylthio)-[1,2,4]triazolo[4,3-a]pyrazin-8(7H)-one]: the IC50 worked out at 41.8 nM. For `O=c1c2nnc(SCc3ccccc3-c3ccccc3)n2ccn1-c1cccc(C(F)(F)F)c1Cl` [Compound 48, 3-(biphenyl-2-ylmethylthio)-7-(2-chloro-3-(trifluoromethyl)phenyl)-[1,2,4]triazolo[4,3-a]pyrazin-8(7H)-one], the IC50 was determined as 17.3 nM. As to `Cc1c(-n2ccn3c(SCc4ccccc4-c4ccccc4)nnc3c2=O)cccc1C(F)(F)F` [Compound 49, 3-(biphenyl-2-ylmethylthio)-7-(2-methyl-3-(trifluoromethyl)phenyl)-[1,2,4]triazolo[4,3-a]pyrazin-8(7H)-one], the half-inhibitory concentration (IC50) stood at 15.9 nM.

Consider `Cc1c(Cl)cccc1-n1ccn2c(SC(=O)N(C)c3ccccc3)nnc2c1=O` [Compound 50, S-7-(3-chloro-2-methylphenyl)-8-oxo-7,8-dihydro-[1,2,4]triazolo[4,3-a]pyrazin-3-yl methyl(phenyl)carbamothioate], for which the IC50 worked out at 6530 nM. Turning to `Cc1c(-n2ccn3c(SCc4ccccc4OC(F)(F)F)nnc3c2=O)cccc1C(F)(F)F` [Compound 51, 7-(2-methyl-3-(trifluorornethyl)phenyl)-3-(2-(trifluoromethoxy)benzylthio)-[1,2,4]triazolo[4,3-a]pyrazin-8(7H)-one], the IC50 was 44.2 nM.

With `Cc1c(Cl)cccc1-n1ccn2c(SCc3ccccc3SC(F)(F)F)nnc2c1=O` [Compound 52, 7-(3-chloro-2-methylphenyl)-3-(2-(trifluorornethylthio)benzylthio)-[1,2,4]triazolo[4,3-a]pyrazin-8(7H)-one], the concentration for half-maximal inhibition (IC50) amounted to 316 nM. Then `Cc1c(Cl)cccc1-n1ccn2c(SCc3ccccc3[N+](=O)[O-])nnc2c1=O` [Compound 53, 7-(3-chloro-2-methylphenyl)-3-(2-nitrobenzylthio)-[1,2,4]triazolo[4,3-a]pyrazin-8(7H)-one], with 994 nM; and `Cc1c(Cl)cccc1-n1ccn2c(SCc3ccccc3-c3ccccc3)nnc2c1=O` [Compound 54, 3-(biphenyl-2-ylmethylthio)-7-(3-chloro-2-methylphenyl)-[1,2,4]triazolo[4,3-a]pyrazin-8(7H)-one], with 44 nM. For the molecule `Cc1cccc(CSc2nnc3c(=O)n(-c4cccc(Cl)c4C)ccn23)c1F` [Compound 55, 7-(3-chloro-2-methylphenyl)-3-(2-fluoro-3-methylbenzylthio)-[1,2,4]triazolo[4,3-a]pyrazin-8(7H)-one], the IC50 is 432 nM.

`Cc1c(-n2ccn3c(SCc4ccccc4F)nnc3c2=O)cccc1C(F)(F)F` [Compound 56, 3-(2-fluorobenzylthio)-7-(2-methyl-3-(trifluoromethyl)phenyl)-[1,2,4]triazolo[4,3-a]pyrazin-8(7H)-one]: the IC50 was 167 nM. In the case of `Cc1ccccc1CSc1nnc2c(=O)n(-c3cccc(C(F)(F)F)c3C)ccn12` [Compound 57, 7-(2-methyl-3-(trifluoromethyl)phenyl)-3-(2-methylbenzylthio)-[1,2,4]triazolo[4,3-a]pyrazin-8(7H)-one], the IC50 came out at 86.4 nM. The same measure for `O=c1c2nnc(SCc3cc(Cl)cc(Cl)c3)n2ccn1-c1cccc(C(F)(F)F)c1F` [Compound 58, 3-(3,5-dichlorobenzylthio)-7-(2-fluoro-3-(trifluoromethyl)phenyl)-[1,2,4]triazolo[4,3-a]pyrazin-8(7H)-one]: 427 nM.

Values taken from patent US20130196986A1 (priority 2010, published 2013).
